target: T1, human TLR8 (hTLR8) (Homo sapiens, UniProt Q9NR97); assay: Antagonist screen, hTLR8-NFκB-293 cells, NF-κB-luciferase reporter, with EC50 of R848; type: cell-based; conditions: compound at 0.5, 5, 50 μg/ml; EC50 concentration of R848; 16 h; NF-κB-luciferase
T1 construct: expressed in transfected cells
T1 sequence (Q9NR97 27-1041): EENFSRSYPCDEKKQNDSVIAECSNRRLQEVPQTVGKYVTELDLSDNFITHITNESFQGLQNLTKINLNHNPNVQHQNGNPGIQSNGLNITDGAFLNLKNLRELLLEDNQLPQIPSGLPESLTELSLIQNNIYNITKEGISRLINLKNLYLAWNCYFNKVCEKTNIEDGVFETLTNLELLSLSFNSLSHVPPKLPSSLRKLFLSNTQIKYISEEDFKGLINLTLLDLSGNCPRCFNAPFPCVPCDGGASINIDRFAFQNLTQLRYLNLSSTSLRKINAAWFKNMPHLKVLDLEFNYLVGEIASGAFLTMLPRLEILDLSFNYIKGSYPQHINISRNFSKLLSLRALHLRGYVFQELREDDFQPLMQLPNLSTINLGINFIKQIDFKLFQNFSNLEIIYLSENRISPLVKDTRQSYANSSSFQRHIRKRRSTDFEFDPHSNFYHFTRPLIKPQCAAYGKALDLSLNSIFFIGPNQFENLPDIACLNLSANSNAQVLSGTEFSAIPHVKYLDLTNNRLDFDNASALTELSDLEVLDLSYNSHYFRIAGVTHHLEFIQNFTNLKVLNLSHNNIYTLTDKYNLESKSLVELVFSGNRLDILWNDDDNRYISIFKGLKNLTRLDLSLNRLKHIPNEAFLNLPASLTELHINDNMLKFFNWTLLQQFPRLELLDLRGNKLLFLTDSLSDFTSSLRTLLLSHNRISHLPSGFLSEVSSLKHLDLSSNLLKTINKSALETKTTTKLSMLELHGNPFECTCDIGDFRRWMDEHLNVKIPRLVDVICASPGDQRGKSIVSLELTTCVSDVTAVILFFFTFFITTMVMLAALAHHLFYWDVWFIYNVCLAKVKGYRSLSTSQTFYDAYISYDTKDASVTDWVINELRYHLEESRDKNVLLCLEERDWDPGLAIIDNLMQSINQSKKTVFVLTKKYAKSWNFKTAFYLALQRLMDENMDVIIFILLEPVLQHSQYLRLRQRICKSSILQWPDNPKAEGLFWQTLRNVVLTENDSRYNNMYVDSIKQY
Description: The method is described in greater detail as follows. The cells for each individual cell clone (hTLR3-NFκB-293, hTLR7-NFκB-293, hTLR8-NFκB-293 and hTLR9-NFκB-293) were counted and seeded one day before the stimulation at 1.5×10^4 cells per well in 96-well cell culture plates. To become adherent the cells were incubated after seeding overnight at 37° C. in 5% CO2 humidified air.
The screen for each compound was performed at the same time for all of the receptors TLR3, TLR7, TLR8 and TLR9. Up to fifteen test compounds, each assayed in duplicate at each of three different final concentrations (0.5 μg/ml, 5 μg/ml, and 50 μg/ml), were used for 16 h cell stimulation on a single multiwell culture plate. A 4× final concentration master plate was created to prepare the different test compounds before they were added to the cells.
Controls were added as duplicates individually for each cell clone on the cell culture plate. Positive controls were used as follows (final concentrations): 50 μg/ml poly(I:C) for hTLR3-NFκB-293; 8 μM resiquimod (R848) for hTLR7-NFκB-293; 30 μM R848 for hTLR8-NFκB-293; and 2.5 μM CpG-ODN 2006 for hTLR9-NFκB-293. Media alone was used as negative control. After addition of controls and small molecules, the cell clones were additionally stimulated with the EC50 concentration of the appropriate receptor-specific ligand.
The mean value of wells H2 and H5 (each with cells and EC50 concentration of the appropriate receptor-specific ligand) divided by the mean of wells H3 and H6 (each with cells alone) yielded the baseline response (i.e., fold induction of luciferase activity) to EC50 concentration of the appropriate receptor-specific ligand.
After 16 h stimulation the supernatant was removed and the cells treated with lysis buffer and stored at −80° C. before measuring.
For each screen result a graphical documentation was performed.
The baseline result (measured with addition of the EC50 concentration of the receptor-specific ligand) for each cell culture plate was measured as described above. Antagonistic effects were measured by down regulation compared to the baseline. Antagonists were scored as follows: • 13: compounds for which there was clear down regulation at 0.5 μg/ml, 5 μg/ml, and 50 μg/ml; • 12: compounds for which there was clear down regulation at 5 μg/ml and 50 μg/ml; • 11: compounds for which there was clear down regulation only at 50 μg/ml; • —: compounds for which there was no clear down regulation even at 50 μg/ml. Agonists
Results were expressed as fold induction over baseline luciferase activity measured in the absence of R848. […] Additional screening was performed in like manner using additional small molecules selected from another library or specifically prepared for this purpose. Scoring is reported as above but as applied to TLR8.

Compound	hTLR8 (inhibitory effect, antagonist score)
c1ccc2c(c1)[nH]c1cnccc12 [compound 470, norharman]	11 (compounds for which there was clear down regulation only at 50 μg/ml)
COC(=O)[C@H]1[C@H]2C[C@@H]3c4[nH]c5cc(OC)ccc5c4CCN3C[C@H]2C[C@@H](OC(=O)/C=C/c2cc(OC)c(OC)c(OC)c2)[C@@H]1OC [compound 568, Rescinnamin]	— (compounds for which there was no clear down regulation even at 50 μg/ml)
OC(c1ccccc1)(c1ccccc1)C1CCNCC1 [compound 93, Azacyclonol]	— (compounds for which there was no clear down regulation even at 50 μg/ml)
Clc1ccc(C(c2ccccc2Cl)C(Cl)Cl)cc1 (stereo not shown) [compound 833, Mitotane]	11 (compounds for which there was clear down regulation only at 50 μg/ml)
CN(C)CCCN1c2ccccc2Sc2ccc(C(F)(F)F)cc21.Cl [compound 53, Triflupromazinehydrochloride]	11 (compounds for which there was clear down regulation only at 50 μg/ml)
Cc1nccc2c1[nH]c1cc(O)ccc12.Cl [compound 612, Harmol hydrochloride monohydrate]	11 (compounds for which there was clear down regulation only at 50 μg/ml)
O=C(O)c1cccc2c1-c1ccccc1/C2=N/Nc1ccc([N+](=O)[O-])cc1[N+](=O)[O-] [compound 944]	— (compounds for which there was no clear down regulation even at 50 μg/ml)
Nc1cccc2c1C(=O)c1cccc(N)c1C2=O [compound 413, Anthraquinone,1,5-diamino]	11 (compounds for which there was clear down regulation only at 50 μg/ml)
CCCC(C(=O)OCCN(CC)CC)(c1ccccc1)c1ccccc1.Cl [compound 778, Proadifen hydrochloride]	11 (compounds for which there was clear down regulation only at 50 μg/ml)
Cl.Cl.Fc1ccc(C(OCCN2CCN(CCCc3ccccc3)CC2)c2ccc(F)cc2)cc1 [compound 386, GBR 12909hydrochloride]	12 (compounds for which there was clear down regulation at 5 μg/ml and 50 μg/ml)
C[N+]12CCC(CC1)C(OC(=O)C(O)(c1ccccc1)c1ccccc1)C2.[Br-] (stereo not shown) [compound 822, Clidinium bromide]	— (compounds for which there was no clear down regulation even at 50 μg/ml)
CN(C)CCCN1c2ccccc2Sc2ccccc21.Cl [compound 693, Promazinehydrochloride]	— (compounds for which there was no clear down regulation even at 50 μg/ml)
CC(CN(C)C)CN1c2ccccc2Sc2ccccc21.CC(CN(C)C)CN1c2ccccc2Sc2ccccc21.O=C(O)C(O)C(O)C(=O)O (stereo not shown) [compound 842, Trimeprazine tartrate]	11 (compounds for which there was clear down regulation only at 50 μg/ml)
COc1ccc2c(c1)[nH]c1c(C)nccc12.Cl [compound 613, harmine hydrochloride]	13 (compounds for which there was clear down regulation at 0.5 μg/ml, 5 μg/ml, and 50 μg/ml)
O=C1c2ccccc2C(=O)c2c1ccc1c(=O)n(-c3ccccc3)[nH]c21 [compound 1042]	13 (compounds for which there was clear down regulation at 0.5 μg/ml, 5 μg/ml, and 50 μg/ml)
O=C(O)c1ccccc1NC1CC=CC2=C1C(=O)c1ccccc1C2=O (stereo not shown) [compound 917]	— (compounds for which there was no clear down regulation even at 50 μg/ml)

Compound	hTLR8 (inhibitory effect, antagonist score)
Metixene hydrochloride [compound 491]	11 (compounds for which there was clear down regulation only at 50 μg/ml)
CC(=O)c1ccc2c(c1)N(CCCN(C)C)c1ccccc1S2.O=C(O)/C=C\C(=O)O [compound 576, Acetopromazinemaleate salt]	— (compounds for which there was no clear down regulation even at 50 μg/ml)
CN(C)CC/C=C1/c2ccccc2Sc2ccc(Cl)cc21.Cl [compound 348, Chlorprothixenehydrochloride]	11 (compounds for which there was clear down regulation only at 50 μg/ml)
Cl.Clc1ccc(C(OCCN2CCCCC2)c2ccccc2)cc1 (stereo not shown) [compound 793, Cloperastinehydrochloride]	— (compounds for which there was no clear down regulation even at 50 μg/ml)
CCN(CC)C(C)CN1c2ccccc2Sc2ccccc21.Cl (stereo not shown) [compound 840, Ethopropazinehydrochloride]	11 (compounds for which there was clear down regulation only at 50 μg/ml)
COC(=O)c1ccc(C2CC(=O)Nc3c2ccc2ccccc32)cc1 (stereo not shown) [compound 965]	— (compounds for which there was no clear down regulation even at 50 μg/ml)
CN(C)CC/C=C1/c2ccccc2CSc2ccccc21.Cl [compound 488, Dosulepin hydrochloride]	— (compounds for which there was no clear down regulation even at 50 μg/ml)
COc1ccc2c(c1)N(CC(C)CN(C)C)c1ccccc1S2.O=C(O)/C=C\C(=O)O (stereo not shown) [compound 797, Methotrimeprazinemaleat salt]	11 (compounds for which there was clear down regulation only at 50 μg/ml)
O=C(O)c1cc(C(c2ccc(O)c(C(=O)O)c2)C(Cl)(Cl)Cl)ccc1O [compound 884]	11 (compounds for which there was clear down regulation only at 50 μg/ml)
C[C@]12N[C@H](Cc3ccccc31)c1ccccc12.O=C(O)/C=C\C(=O)O [compound 109, Dizocilpine maleate]	— (compounds for which there was no clear down regulation even at 50 μg/ml)
Cc1c2ccncc2c(C)c2c1[nH]c1ccccc12 [compound 614, Ellipticine]	11 (compounds for which there was clear down regulation only at 50 μg/ml)
O=c1[nH]c2ccccc2n1C1CCN(CCCC(c2ccc(F)cc2)c2ccc(F)cc2)CC1 [compound 308, Pimozide]	11 (compounds for which there was clear down regulation only at 50 μg/ml)
CN1CCC(OC(c2ccccc2)c2ccccc2)CC1.Cl [compound 707, Diphenylpyralinehydrochloride]	— (compounds for which there was no clear down regulation even at 50 μg/ml)
COc1ccc2[nH]c3c(c2c1)CCN=C3C [compound 621, Methoxy-6-harmalan]	— (compounds for which there was no clear down regulation even at 50 μg/ml)
Cc1cccc(C)c1NC(=O)CN1CCN(CCCC(c2ccc(F)cc2)c2ccc(F)cc2)CC1 [compound 381, Lidoflazine]	11 (compounds for which there was clear down regulation only at 50 μg/ml)
